Source: patent US12371454B2, “Cyclic peptide compound having Kras inhibitory action” (priority 2019, dated 2025)
Positions of bridges follow the written chain, without caps; N, C: chain ends. Non-standard residues stand in square brackets, D forms with d. Residues, ends and D or L forms follow the SMILES beside them. *: point of attachment. hPhe(3-Cl-4-CF3) = N[C@@H](CCc1ccc(C(F)(F)F)c(Cl)c1)C(=O)O; NMeAbu(4,4,4-F3) = CN[C@@H](CC(F)(F)F)C(=O)O; NMePhe(3-Br) = CN[C@@H](Cc1cccc(Br)c1)C(=O)O; NMePhe(4-Me) = CN[C@@H](Cc1ccc(C)cc1)C(=O)O; NMePhe(4-F) = CN[C@@H](Cc1ccc(F)cc1)C(=O)O; Abu(4,4,4-F3) = N[C@@H](CC(F)(F)F)C(=O)O; NMeAla(cPent) = CN[C@@H](CC1CCCC1)C(=O)O; NMeGly(cPent) = CN[C@H](C(=O)O)C1CCCC1; NMe3Pal = CN[C@@H](Cc1cccnc1)C(=O)O; NMeCha = CN[C@@H](CC1CCCCC1)C(=O)O; Pro(4-oxo) = O=C1CN[C@H](C(=O)O)C1; NMeChg = CN[C@H](C(=O)O)C1CCCCC1; NMeF = CN[C@@H](Cc1ccccc1)C(=O)O; NMeI = CC[C@H](C)[C@H](NC)C(=O)O; Gly(cPr) = N[C@H](C(=O)O)C1CC1; NMeD = CN[C@@H](CC(=O)O)C(=O)O; NMeL = CN[C@@H](CC(C)C)C(=O)O; NMeNle = CCCC[C@H](NC)C(=O)O; NMeV = CN[C@H](C(=O)O)C(C)C; d(β3hA) = C[C@@H](N)CC(=O)O; NMeS = CN[C@@H](CO)C(=O)O; Morpholide = C1CN(*)CCO1; NMeA = CN[C@@H](C)C(=O)O; Piperidide = C1CCN(*)CC1; Pyrrolidide = C1CCN(*)C1; dNMeA = CN[C@H](C)C(=O)O; Ac5c = NC1(C(=O)O)CCCC1; Aze = O=C(O)[C@@H]1CCN1; Ac4c = NC1(C(=O)O)CCC1; Cyclopropyl = C1CC1*; Sar = CNCC(=O)O; Propyl = CCC*

Target: T1, Kras and SOS1 (biotin-tagged human Kras loaded with GDP, His-tagged human SOS1) (Homo sapiens, UniProt P01116, G12D)
T1 construct: made in house; host or cells: E. coli (stated for Kras only)
Experiment: Protein-protein interaction inhibition between Kras and SOS1 (KrasGl2D-SOS PPI) using AlphaScreen
Type: binding
Conditions: AlphaScreen; biotin-tagged human Kras loaded with GDP, His-tagged human SOS1; read-out: KRAS G12D-SOS PPI IC50
Procedure, shortened: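 Donor beads (nickel) hold His-SOS1; acceptor beads (streptavidin) hold biotin-Kras bound to GDP. Signal measured at 520-620 nm following 680 nm excitation.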

T1 sequence (P01116 1-188 isoform P01116-2 G12D): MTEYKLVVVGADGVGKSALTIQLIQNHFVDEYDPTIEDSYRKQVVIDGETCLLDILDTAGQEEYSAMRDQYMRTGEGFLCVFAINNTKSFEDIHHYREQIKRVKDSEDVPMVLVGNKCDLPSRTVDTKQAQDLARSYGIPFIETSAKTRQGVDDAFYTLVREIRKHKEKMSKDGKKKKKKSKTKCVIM

| Structure (SMILES) | IC50 |
| --- | --- |
| CCCC[C@H]1C(=O)N(C)[C@H](C(=O)N2CCCCC2)CC(=O)N(C)[C@@H](CC(C)C)C(=O)N[C@@H]([C@@H](C)CC)C(=O)N(C)CC(=O)N(C)CC(=O)N(C)[C@@H](CC2CCCCC2)C(=O)N(C)CC(=O)N[C@@H](CCc2ccc(C(F)(F)F)c(Cl)c2)C(=O)N2CCC[C@H]2C(=O)NC2(CCCC2)C(=O)N1C [Compound 1815] ([NMeL]I[Sar][Sar][NMeCha][Sar][hPhe(3-Cl-4-CF3)]P[Ac5c][NMeNle][NMeD]-Piperidide; lactam N-11) | 2.5 nM |
| CC[C@H](C)[C@@H]1NC(=O)[C@H](CC(C)C)N(C)C(=O)C[C@@H](C(=O)N2CCCC2)N(C)C(=O)[C@H](C2CCCC2)N(C)C(=O)C2(CCCC2)NC(=O)[C@@H]2CCCN2C(=O)[C@H](CCc2ccc(C(F)(F)F)c(Cl)c2)NC(=O)CN(C)C(=O)[C@H](CC2CCCCC2)N(C)C(=O)CN(C)C(=O)CN(C)C1=O [Compound 1818] ([NMeL]I[Sar][Sar][NMeCha][Sar][hPhe(3-Cl-4-CF3)]P[Ac5c][NMeGly(cPent)][NMeD]-Pyrrolidide; lactam N-11) | 0.4 nM |
| CC[C@H](C)[C@@H]1NC(=O)[C@H](CC(C)C)N(C)C(=O)C[C@@H](C(=O)N2CCCCC2)N(C)C(=O)[C@H](C(C)C)N(C)C(=O)C2(CCCC2)NC(=O)[C@@H]2CC(=O)CN2C(=O)[C@H](CCc2ccc(C(F)(F)F)c(Cl)c2)NC(=O)CN(C)C(=O)[C@H](CC2CCCCC2)N(C)C(=O)[C@@H]2CCN2C(=O)[C@H](C)N(C)C1=O [Compound 1819] ([NMeL]I[NMeA][Aze][NMeCha][Sar][hPhe(3-Cl-4-CF3)][Pro(4-oxo)][Ac5c][NMeV][NMeD]-Piperidide; lactam N-11) | 3.8 nM |
| CC[C@H](C)[C@@H]1NC(=O)[C@H](C)N(C)C(=O)C[C@@H](C(=O)N2CCCC2)N(C)C(=O)[C@H](C2CCCCC2)N(C)C(=O)C2(CCCC2)NC(=O)[C@H](Cc2cccnc2)N(C)C(=O)[C@H](CCc2ccc(C(F)(F)F)c(Cl)c2)NC(=O)CN(C)C(=O)[C@H](CC2CCCCC2)N(C)C(=O)CN(C)C(=O)CN(C)C1=O [Compound 1834] ([NMeA]I[Sar][Sar][NMeCha][Sar][hPhe(3-Cl-4-CF3)][NMe3Pal][Ac5c][NMeChg][NMeD]-Pyrrolidide; lactam N-11) | 0.81 nM |
| CC[C@H](C)[C@@H]1NC(=O)[C@H](CC(C)C)N(C)C(=O)C[C@@H](C(=O)N(C)C)N(C)C(=O)[C@H]([C@@H](C)CC)N(C)C(=O)C2(CCCC2)NC(=O)[C@@H]2CCCN2C(=O)[C@H](CCc2ccc(C(F)(F)F)c(Cl)c2)NC(=O)CN(C)C(=O)[C@H](Cc2ccc(C)cc2)N(C)C(=O)CN(C)C(=O)CN(C)C1=O [Compound 1836] ([NMeL]I[Sar][Sar][NMePhe(4-Me)][Sar][hPhe(3-Cl-4-CF3)]P[Ac5c][NMeI][NMeD]-NMe2; lactam N-11) | 0.47 nM |
| CC[C@H](C)[C@@H]1NC(=O)[C@H](CC(C)C)N(C)C(=O)C[C@@H](C(=O)N2CCCCC2)N(C)C(=O)[C@H](C2CCCCC2)N(C)C(=O)C2(CCCC2)NC(=O)[C@@H]2CCCN2C(=O)[C@H](CCc2ccc(C(F)(F)F)c(Cl)c2)NC(=O)CN(C)C(=O)[C@H](CC(F)(F)F)N(C)C(=O)CN(C)C(=O)CN(C)C1=O [Compound 1841] ([NMeL]I[Sar][Sar][NMeAbu(4,4,4-F3)][Sar][hPhe(3-Cl-4-CF3)]P[Ac5c][NMeChg][NMeD]-Piperidide; lactam N-11) | 4.4 nM |
| CC[C@H](C)[C@@H]1NC(=O)[C@H](C)N(C)C(=O)C[C@@H](C(=O)N2CCCCC2)N(C)C(=O)[C@H](C(C)C)N(C)C(=O)C2(CCCC2)NC(=O)[C@@H]2CCCN2C(=O)[C@H](CCc2ccc(C(F)(F)F)c(Cl)c2)NC(=O)[C@@H](C)N(C)C(=O)[C@H](Cc2ccccc2)N(C)C(=O)CN(C)C(=O)CN(C)C1=O [Compound 1844] ([NMeA]I[Sar][Sar][NMeF][dNMeA][hPhe(3-Cl-4-CF3)]P[Ac5c][NMeV][NMeD]-Piperidide; lactam N-11) | 17 nM |
| CC[C@H](C)[C@@H]1NC(=O)[C@H](CC(C)C)N(C)C(=O)C[C@@H](C(=O)N2CCOCC2)N(C)C(=O)[C@H](C(C)C)N(C)C(=O)C2(CCCC2)NC(=O)[C@@H]2CCCN2C(=O)[C@H](CCc2ccc(C(F)(F)F)c(Cl)c2)NC(=O)CN(C)C(=O)[C@H](CC2CCCC2)N(C)C(=O)CN(C)C(=O)CN(C)C1=O [Compound 1848] ([NMeL]I[Sar][Sar][NMeAla(cPent)][Sar][hPhe(3-Cl-4-CF3)]P[Ac5c][NMeV][NMeD]-Morpholide; lactam N-11) | 1.4 nM |
| CC[C@H](C)[C@@H]1NC(=O)[C@H](C)N(C)C(=O)C[C@@H](C(=O)N2CCCCC2)N(C)C(=O)[C@H](C(C)C)N(C)C(=O)C2(CCCC2)NC(=O)[C@@H]2CCCN2C(=O)[C@H](CCc2ccc(C(F)(F)F)c(Cl)c2)NC(=O)[C@@H](C)N(C)C(=O)[C@H](Cc2ccc(F)cc2)N(C)C(=O)[C@@H]2CCCN2C(=O)CN(C)C1=O [Compound 1853] ([NMeA]I[Sar]P[NMePhe(4-F)][dNMeA][hPhe(3-Cl-4-CF3)]P[Ac5c][NMeV][NMeD]-Piperidide; lactam N-11) | 8.9 nM |
| CCCOC[C@H]1C(=O)N(C)[C@H](C(=O)N2CCCCC2)CC(=O)N(C)[C@@H](CC(C)C)C(=O)N[C@@H]([C@@H](C)CC)C(=O)N(C)[C@@H](C)C(=O)N2CC[C@H]2C(=O)N(C)[C@@H](CC2CCCCC2)C(=O)N(C)CC(=O)N[C@@H](CCc2ccc(C(F)(F)F)c(Cl)c2)C(=O)N2CCC[C@H]2C(=O)NC2(CCCC2)C(=O)N1C [Compound 1855] ([NMeL]I[NMeA][Aze][NMeCha][Sar][hPhe(3-Cl-4-CF3)]P[Ac5c][NMeS](Propyl)[NMeD]-Piperidide; lactam N-11) | 340 nM |
| CC[C@H](C)[C@@H]1NC(=O)[C@H](CC(C)C)N(C)C(=O)C[C@@H](C)NC(=O)[C@H](C2CCCCC2)N(C)C(=O)C2(CCCC2)NC(=O)[C@@H]2CCCN2C(=O)[C@H](CCc2ccc(C(F)(F)F)c(Cl)c2)NC(=O)CN(C)C(=O)[C@H](Cc2ccc(C)cc2)N(C)C(=O)CN(C)C(=O)CN(C)C1=O [Compound 1856] (cyclo([Ac5c][NMeChg][d(β3hA)][NMeL]I[Sar][Sar][NMePhe(4-Me)][Sar][hPhe(3-Cl-4-CF3)]P)) | 5.4 nM |
| CC[C@H](C)[C@@H]1NC(=O)[C@H](CC(C)C)N(C)C(=O)C[C@@H](C(=O)N2CCCCC2)N(C)C(=O)[C@H](COC2CC2)N(C)C(=O)C2(CCCC2)NC(=O)[C@@H]2CCCN2C(=O)[C@H](CCc2ccc(C(F)(F)F)c(Cl)c2)NC(=O)CN(C)C(=O)[C@H](CC2CCCCC2)N(C)C(=O)CN(C)C(=O)CN(C)C1=O [Compound 1857] ([NMeL]I[Sar][Sar][NMeCha][Sar][hPhe(3-Cl-4-CF3)]P[Ac5c][NMeS](Cyclopropyl)[NMeD]-Piperidide; lactam N-11) | 19 nM |
| CC[C@H](C)[C@@H]1NC(=O)[C@H](CC(C)C)N(C)C(=O)C[C@@H](C(=O)N(C)C)N(C)C(=O)[C@H]([C@@H](C)CC)N(C)C(=O)C2(CCCC2)NC(=O)[C@@H]2CCCN2C(=O)[C@H](CCc2ccc(C(F)(F)F)c(Cl)c2)NC(=O)CN(C)C(=O)[C@H](CC2CCCCC2)N(C)C(=O)[C@@H]2CCN2C(=O)[C@H](C)N(C)C1=O [Compound 1858] ([NMeL]I[NMeA][Aze][NMeCha][Sar][hPhe(3-Cl-4-CF3)]P[Ac5c][NMeI][NMeD]-NMe2; lactam N-11) | 1.1 nM |
| CC(C)C[C@H]1C(=O)N[C@@H](C2CC2)C(=O)N(C)CC(=O)N(C)CC(=O)N(C)[C@@H](CC2CCCCC2)C(=O)N(C)CC(=O)N[C@@H](CCc2ccc(C(F)(F)F)c(Cl)c2)C(=O)N2CCC[C@H]2C(=O)NC2(CCCC2)C(=O)N(C)[C@@H](C2CCCCC2)C(=O)N(C)[C@H](C(=O)N2CCCCC2)CC(=O)N1C [Compound 1862] ([NMeL][Gly(cPr)][Sar][Sar][NMeCha][Sar][hPhe(3-Cl-4-CF3)]P[Ac5c][NMeChg][NMeD]-Piperidide; lactam N-11) | 2 nM |
| CC(C)C[C@H]1C(=O)N[C@@H](CC(F)(F)F)C(=O)N(C)[C@@H](C)C(=O)N2CC[C@H]2C(=O)N(C)[C@@H](CC2CCCCC2)C(=O)N(C)CC(=O)N[C@@H](CCc2ccc(C(F)(F)F)c(Cl)c2)C(=O)N2CCC[C@H]2C(=O)NC2(CCCC2)C(=O)N(C)[C@@H](C(C)C)C(=O)N(C)[C@H](C(=O)N2CCCCC2)CC(=O)N1C [Compound 1864] ([NMeL][Abu(4,4,4-F3)][NMeA][Aze][NMeCha][Sar][hPhe(3-Cl-4-CF3)]P[Ac5c][NMeV][NMeD]-Piperidide; lactam N-11) | 48 nM |
| CC[C@H](C)[C@@H]1NC(=O)[C@H](CC(C)C)N(C)C(=O)C[C@@H](C(=O)N(C)C)N(C)C(=O)[C@H]([C@@H](C)CC)N(C)C(=O)C2(CCCC2)NC(=O)[C@@H]2CCCN2C(=O)[C@H](CCc2ccc(C(F)(F)F)c(Cl)c2)NC(=O)CN(C)C(=O)[C@H](CC2CCCCC2)N(C)C(=O)CN(C)C(=O)CN(C)C1=O [Compound 1865] ([NMeL]I[Sar][Sar][NMeCha][Sar][hPhe(3-Cl-4-CF3)]P[Ac5c][NMeI][NMeD]-NMe2; lactam N-11) | 0.43 nM |
| CC[C@H](C)[C@@H]1NC(=O)[C@H](CC(C)C)N(C)C(=O)C[C@@H](C(=O)N(C)C)N(C)C(=O)[C@H]([C@@H](C)CC)N(C)C(=O)C2(CCCC2)NC(=O)[C@H](Cc2cccc(Br)c2)N(C)C(=O)[C@H](CCc2ccc(C(F)(F)F)c(Cl)c2)NC(=O)CN(C)C(=O)[C@H](Cc2ccc(C)cc2)N(C)C(=O)[C@@H]2CCN2C(=O)[C@H](C)N(C)C1=O [Compound 1873] ([NMeL]I[NMeA][Aze][NMePhe(4-Me)][Sar][hPhe(3-Cl-4-CF3)][NMePhe(3-Br)][Ac5c][NMeI][NMeD]-NMe2; lactam N-11) | 33 nM |
| CC[C@H](C)[C@@H]1NC(=O)[C@H](CC(C)C)N(C)C(=O)C[C@@H](C(=O)N2CCOCC2)N(C)C(=O)[C@H](C2CCCCC2)N(C)C(=O)C2(CCC2)NC(=O)[C@@H]2CCCN2C(=O)[C@H](CCc2ccc(C(F)(F)F)c(Cl)c2)NC(=O)CN(C)C(=O)[C@H](CC2CCCCC2)N(C)C(=O)CN(C)C(=O)CN(C)C1=O [Compound 1875] ([NMeL]I[Sar][Sar][NMeCha][Sar][hPhe(3-Cl-4-CF3)]P[Ac4c][NMeChg][NMeD]-Morpholide; lactam N-11) | 0.42 nM |
